Test results reported in patent publication US6303577A, “Use of a peptide compound in the treatment of systemic lupus erythematosus” (Tecnogen S.C.p.A., priority 1998, dated 2001).

Assays:
in vitro = in vitro ADME, mouse; conditions: for remaining at 5 min / remaining at 20 min / remaining at 40 min / remaining at 1 h: mouse, serum
Protocol: The stability of the peptide compounds of formula (I) to proteolytic attack by proteases has been evaluated by High Performance Liquid Chromatography (HPLC).
Mouse sera were obtained by cutting a small section off tip of tail and collecting some blood drops. After collection, blood was incubated for 1 hour at 37° C. and then serum was removed from the clot by centrifugation at 1200 g for 20' at 4° C. Various amounts of peptide compounds of formula (I) were added to 50 μl of serum and the mixture was incubated at 37° C. for different periods of time. Afterwards, 2 μl of the reaction mixture were added to 50 μl of 0.1 M acetic acid in order to elute the peptide compound from serum immunoglobulins. Samples were then stored at -80° C. until use.
Analysis of samples was carried out on an Aquapore RP-8 column (30×2.1 mm I.D.), eluting the equilibrated column at a flow rate of 0.5 ml/min with a linear gradient of 0.1% trifluoracetic acid buffer containing increasing acetonitrile concentration from 5% to 60% in 35'. Elution was monitored by absorbance at 225 nm.

Balb/c mice = conditions: mouse, in vivo
Protocol: The ability of the peptide compounds of formula (I) to evoke an antibody response has been evaluated by immunizing two groups of four Balb/c mice with 100 μg of D-PAM or L-PAM respectively by i.p. injection. After the first immunization, the same immunogen was administered for two subsequent boosts, blood samples were collected from each animal for monitoring antibody titers by an ELISA assay as follow.
Polystyrene microtiter plates (Falcon Cat. No 3912) were coated with a 50 μg/ml D-PAM and L-PAM conjugated to BSA (100 μl/well) in 0.1 M sodium carbonate buffer (pH 8.5) and incubated over night at 4° C. After washing the microtiter plates ten times with a 50 mM phosphate, 150 mM NaCI pH 7.2 buffer (PBS), the wells were saturated with 200 μl of PBS containing bovine serum albumin (BSA, Sigma Cat. No A-9418) for 1 hour at 37° C., to block the uncoated plastic surface. Plates were then washed again with PBS containing 0.05% Tween 20 (PBS-T), and filled with samples (100 μl/well) previously diluted with PBS-T containing 1% BSA (PBS-T-B). […] The color was allowed to develop for 30' and absorbances were read at 405 nm with an ELISA plate reader (Labsystems Multiskan Bichromatic). […]

MRL/Ipr mice [1] = assay: Serum anti-DNA antibodies by ELISA in mouse model of Systemic Lupus Erythematosus; format: in vivo; conditions: 1 mg i.p. twice a week from 7 weeks of age
Protocol: (§1) In vivo studies on the activity of the peptide compounds of formula (I) were carried out by using an experimental animal model of human Systemic Lupus Erythematosus. MRL/Ipr, NZB/NZW or BXSB denote mouse strains that spontaneously develop an autoimmune syndrome having notable similarities to human Systemic Lupus Erythematosus. The MRL-Ipr/Ipr strain is homozigotic for Ipr gene. The lpr mutation causes functional defects in the Fas Ag. Fas belongs to the TNF receptor family and mediates apoptosis (Watanabe-Fukunaga, R. et al., "Nature", 356, 314, 1992; Itoh, N., et al., "Cell", 66, 233, 1991; Murphy, E. D., "Immunological defects in Laboratory Animals", 2, 143, 1981; Steinberg, A. D., "Semin. Immunol.", 6, 55, 1994). Autoimmune disease in MRL/Ipr mice is characterized by autoantibody production, vasculitis, arthritis, and glomerulonephritis that is the major cause of death (Theofilopoulos, A. N., et al., "Adv. Immunol.", 37, 269, 1985; Cohen, P. L., et al., "Annu. Rev. Immunol.", 9, 243, 1991).
(§2) At 7 weeks of age, mice were treated twice a week with 1 mg of D-PAM, L-PAM or placebo […] administered intraperitoneally. The treatment was stopped at 30 weeks of age. Mice were observed daily for clinical signs of disease and for mortality and were bled every 2 weeks for determination of anti-DNA antibody production, while urine protein levels were determined on samples taken twice a week.
Standard ELISA assay to measure the serum levels of anti-DNA antibodies was performed as follow. Microtiter plates (Costar, Cat. No 3590) were coated with a 10 μg/ml DNA (Sigma Cat. No D-8899) solution (100 μl/well) in 0.01 M phosphate buffer (pH 8.0) and incubated over night at 4° C. After washing the microtiter plates ten times with a 50 mM phosphate, 150 mM NaCl pH 7.2 buffer (PBS) containing 0.05% Tween (PBS-T), the wells were saturated with 200 μl of PBS-T containing fetal calf serum (1%) heat-inactivated 1 hour at 56° C. (PBS-T-FCS), and incubated for 2 hours at room temperature, to block the uncoated plastic surface. Plates were then washed again with PBS-T, and filled with samples (100 μl/well) previously diluted with PBS-T-FCS. After incubation for 2 hours at room temperature and subsequent washing, wells were filled with 100 μl of horseradish peroxidase labeled goat anti-mouse polyvalent immunoglobulins (IgG, IgA, IgM) (Sigma, Cat. No A-0412) solution diluted 1000 fold with PBS-T-FCS. The plates were then left to stand for 1 hour at room temperature, washed ten times and then filled with 150 μl of ophenylenediamine dihydrochloride (Sigma Cat. No P-6912) chromogenic substrate solution freshly prepared according to protocols from the manufacturer. The color was allowed to develop for 30' and the adsorbance at 450 nm were determined with an ELISA plate reader (Labsystems Multiskan Bichromatic).

MRL/Ipr mice [2] = assay: Urine protein levels (dipstick) in mouse model of Systemic Lupus Erythematosus; format: in vivo; conditions: for Mice with proteinuria level >1 g/L (%): 1 mg i.p. twice a week from 7 weeks of age
Protocol: as §1, §2
Urine protein levels were determined by colorimetric analysis using dipsticks (Combur 7, Boehringer Mannheim, n. cat. 185515) according to protocols from the manufacturer (Wang et al., "Proc. Natl. Acad. Sci. USA", 93, 8563-8568, 1996).

MRL/Ipr mice [3] = assay: Survival in mouse model of Systemic Lupus Erythematosus; format: in vivo; conditions: 1 mg i.p. twice a week from 7 weeks of age
Protocol: as §1, §2
Coincident with ameliorating the clinical signs of severe immune complex nephritis, a dramatic prolongation of survival was observed.

MRL/Ipr mice [4] = assay: Histopathologic examination of renal tissue; format: in vivo, mouse; conditions: hematoxylin and eosin, light microscope
Protocol: as §1
as §2, with “The treatment was stopped at 30 weeks of age.” left out, “week. […]” for “week.”

Compound | remaining at 5 min (in vitro) | remaining at 20 min (in vitro) | remaining at 40 min (in vitro) | remaining at 1 h (in vitro) | Antibody titer (A 405) (Balb/c mice) | Ig Anti-DNA titer (O.D.) fold increase (MRL/Ipr mice [1]; time 8 weeks) | Ig Anti-DNA titer (O.D.) fold increase (MRL/Ipr mice [1]; time 10 weeks) | Ig Anti-DNA titer (O.D.) fold increase (MRL/Ipr mice [1]; time 14 weeks) | Ig Anti-DNA titer (O.D.) fold increase (MRL/Ipr mice [1]; time 16 weeks) | Ig Anti-DNA titer (O.D.) fold increase (MRL/Ipr mice [1]; time 18 weeks) | Onset of severe proteinuria versus untreated animals (in words) (MRL/Ipr mice [2]; 1 mg i.p. twice a week) | Mice with proteinuria level >1 g/L (%) (MRL/Ipr mice [2]; time 8 weeks) | Mice with proteinuria level >1 g/L (%) (MRL/Ipr mice [2]; time 13 weeks) | Mice with proteinuria level >1 g/L (%) (MRL/Ipr mice [2]; time 18 weeks) | Mice with proteinuria level >1 g/L (%) (MRL/Ipr mice [2]; time 23 weeks) | Mice with proteinuria level >1 g/L (%) (MRL/Ipr mice [2]; time 28 weeks) | Survival rate (%) (MRL/Ipr mice [3]; time 15 weeks) | Survival rate (%) (MRL/Ipr mice [3]; time 20 weeks) | Survival rate (%) (MRL/Ipr mice [3]; time 25 weeks) | Survival rate (%) (MRL/Ipr mice [3]; time 30 weeks) | other results
C[C@H](O)[C@@H](NC(=O)[C@H](N)CCCNC(=N)N)C(=O)N[C@H](Cc1ccc(O)cc1)C(=O)NCCCC[C@H](NC(=O)[C@@H](Cc1ccc(O)cc1)NC(=O)[C@H](NC(=O)[C@H](N)CCCNC(=N)N)[C@H](C)O)C(=O)NCCCC[C@H](NC(=O)[C@H](CCCCNC(=O)[C@@H](Cc1ccc(O)cc1)NC(=O)[C@H](NC(=O)[C@H](N)CCCNC(=N)N)[C@H](C)O)NC(=O)[C@@H](Cc1ccc(O)cc1)NC(=O)[C@H](NC(=O)[C@H](N)CCCNC(=N)N)[C@H](C)O)C(=O)NCC(=O)O [D-PAM, (H2 N-D-Arg-D-Thr-D-Tyr-CO)4 -(Lys)2 -Lys-Gly-OH] | 83% | 73% | 68% | 63% | 0.663 A 405 | 1.8 fold increase | 2.5 fold increase | 3.5 fold increase | 3.5 fold increase | 4.3 fold increase | marked delay in the onset of severe proteinuria | 0% | 0% | 0% | 20% | 30% | 100% | 100% | 90% | 80% | Stability to proteolytic attack (in words) (in vitro): more stable to proteolytic attack than L-PAM; Time until which treated mice did not develop proteinuria (MRL/Ipr mice [2]; 1 mg i.p. twice a week): 20 weeks; Glomerulonephropathic progression versus positive control group (in words) (MRL/Ipr mice [4]): evident reduction in the glomerulonephropathic progression
C[C@@H](O)[C@H](NC(=O)[C@@H](N)CCCNC(=N)N)C(=O)N[C@@H](Cc1ccc(O)cc1)C(=O)NCCCC[C@H](NC(=O)[C@H](Cc1ccc(O)cc1)NC(=O)[C@@H](NC(=O)[C@@H](N)CCCNC(=N)N)[C@@H](C)O)C(=O)NCCCC[C@H](NC(=O)[C@H](CCCCNC(=O)[C@H](Cc1ccc(O)cc1)NC(=O)[C@@H](NC(=O)[C@@H](N)CCCNC(=N)N)[C@@H](C)O)NC(=O)[C@H](Cc1ccc(O)cc1)NC(=O)[C@@H](NC(=O)[C@@H](N)CCCNC(=N)N)[C@@H](C)O)C(=O)NCC(=O)O [L-PAM, (H2 N-L-Arg-L-Thr-L-Tyr-CO)4 -(Lys)2 -Lys-Gly-OH] | 57% | 31% | 19% | 12% | 0.462 A 405 | 1.8 fold increase | 2.5 fold increase | 3.6 fold increase | 3.6 fold increase | 4.5 fold increase | marked delay in the onset of severe proteinuria | 0% | 0% | 10% | 50% | 60% | 100% | 90% | 50% | 40% | Glomerulonephropathic progression versus positive control group (in words) (MRL/Ipr mice [4]): evident reduction in the glomerulonephropathic progression
